Molecular target: ATX (human His-tagged) (Homo sapiens (Human), UniProt Q13822)
Experiment: Human ATX enzyme inhibition assay (fluorescence quenching, MR121 substrate)
Assay type: biochemical
Conditions: 30 nM ATX, 1 μM MR121 substrate, 30° C., pH 8.0
In short: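 Fluorescence quenching assay with MR121/tryptophan-labelled substrate analogue in Tris-HCl buffer (140 mM NaCl, CaCl2, MgCl2, 0.01% Triton X-100, pH 8.0). Serially diluted compounds were preincubated 15 min at 30 °C with 30 nM ATX (final), then 1 µM substrate (final) added and incubated 15 min at 30 °C.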

Row | Compound | IC50 [nM]
1 | O=C(c1cc2cc(OC(F)(F)F)ccc2[nH]1)N1C[C@@H]2[C@H](C1)[C@H]1CN(C(=O)[C@@H]3CCc4[nH]nnc4C3)C[C@@H]21 [Example 1.019, [(3aR,3bS,6aR,6bS)-5-((R)-4,5,6,7-tetrahydro-1H-benzotriazole-5-carbonyl)-octahydro-cyclobuta[1,2-c;3,4-c′]dipyrrol-2-yl]-(5-trifluoromethoxy-1H-indol-2-yl)-methanone] | 11.5
2 | Cc1oc(-c2ccc(Cl)cc2)nc1C(=O)N1C[C@@H]2[C@H]3CN(C(=O)c4ccc5[nH]nnc5c4)C[C@H]3[C@@H]2C1 [Example 1.030, [(3aR,3bS,6aR,6bS)-5-(1H-benzotriazole-5-carbonyl)-octahydro-cyclobuta[1,2-c;3,4-c′]dipyrrol-2-yl]-[2-(4-chloro-phenyl)-5-methyl-oxazol-4-yl]-methanone] | 104
3 | CCOc1cc(C(=O)N2C[C@@H]3[C@H]4CN(C(=O)c5ccc(S(N)(=O)=O)nc5)C[C@H]4[C@@H]3C2)nc2ccccc12 [Example 1.083, 5-[(3aS,3bR,6aS,6bR)-5-(4-ethoxy-quinoline-2-carbonyl)-octahydro-cyclobuta[1,2-c;3,4-c′]dipyrrole-2-carbonyl]-pyridine-2-sulfonic acid amide] | 154
4 | O=C(c1cnc(OCC(F)(F)F)c(C2CCOCC2)c1)N1C[C@@H]2[C@H](C1)[C@H]1CN(C(=O)c3ccc4[nH]nnc4c3)C[C@@H]21 [Example 1.106, (1H-benzotriazol-5-yl)-{(3aS,3bS,6aR,6bR)-5-[5-(tetrahydro-pyran-4-yl)-6-(2,2,2-trifluoro-ethoxy)-pyridine-3-carbonyl]-octahydro-cyclobuta[1,2-c;3,4-c′]dipyrrol-2-yl}-methanone] | 169
5 | Cn1c(C(=O)N2C[C@@H]3[C@H]4CN(C(=O)c5ccc6[nH]nnc6c5)C[C@H]4[C@@H]3C2)cc2ccc(Cl)cc21 [Example 1.034, [(3aR,3bS,6aR,6bS)-5-(1H-benzotriazole-5-carbonyl)-octahydro-cyclobuta[1,2-c;3,4-c′]dipyrrol-2-yl]-(6-chloro-1-methyl-1H-indol-2-yl)-methanone] | 489
6 | CCOc1cc(C(=O)N2C[C@@H]3[C@H](C2)[C@H]2CN(C(=O)c4ccc5[nH]nnc5n4)C[C@@H]32)nc2ccc(C(F)(F)F)cc12 [Example 1.091, [(3aS,3bS,6aR,6bR)-5-(4-ethoxy-6-trifluoromethyl-quinoline-2-carbonyl)-octahydro-cyclobuta[1,2-c;3,4-c′]dipyrrol-2-yl]-(1H-[1,2,3]triazolo[4,5-b]pyridin-5-yl)-methanone] | 17
7 | O=C(c1cnc(OCC(F)(F)F)c(Br)c1)N1C[C@@H]2[C@H](C1)[C@H]1CN(C(=O)c3ccc4[nH]nnc4c3)C[C@@H]21 [Example 1.100, (1H-benzotriazol-5-yl)-{(3aS,3bS,6aR,6bR)-5-[5-bromo-6-(2,2,2-trifluoro-ethoxy)-pyridine-3-carbonyl]-octahydro-cyclobuta[1,2-c;3,4-c′]dipyrrol-2-yl}-methanone] | 10
8 | COc1cc2ccccc2cc1C(=O)N1C[C@@H]2[C@H]3CN(C(=O)c4ccc5[nH]nnc5c4)C[C@H]3[C@@H]2C1 [Example 1.021, [(3aS,3bS,6aR,6bR)-5-(1H-benzotriazole-5-carbonyl)-octahydro-cyclobuta[1,2-c;3,4-c′]dipyrrol-2-yl]-(3-methoxy-naphthalen-2-yl)-methanone] | 265
9 | Cc1ccc2ccc(C(=O)N3C[C@@H]4[C@H](C3)[C@H]3CN(C(=O)c5ccc6[nH]nnc6c5)C[C@@H]43)cc2c1 [Example 1.014, [(3aS,3bS,6aR,6bR)-5-(1H-benzotriazole-5-carbonyl)-octahydro-cyclobuta[1,2-c;3,4-c′]dipyrrol-2-yl]-(7-methyl-naphthalen-2-yl)-methanone] | 45
10 | O=C(c1ccc2cc(Cl)ccc2c1)N1C[C@@H]2[C@H](C1)[C@H]1CN(C(=O)c3ccc4[nH]nnc4c3)C[C@@H]21 [Example 1, [(3aS,3bS,6aR,6bR)-5-(1H-Benzotriazole-5-carbonyl)-octahydro-cyclobuta[1,2-c;3,4-c′]dipyrrol-2-yl]-(6-chloro-naphthalen-2-yl)-methanone] | 34
11 | COc1cc(C(=O)N2C[C@@H]3[C@H](C2)[C@H]2CN(C(=O)[C@@H]4CCc5[nH]nnc5C4)C[C@@H]32)cc2ccccc12 [Example 1.044, (4-methoxy-naphthalen-2-yl)-[(3aR,3bS,6aR,6bS)-5-((R)-4,5,6,7-tetrahydro-1H-benzotriazole-5-carbonyl)-octahydro-cyclobuta[1,2-c;3,4-c′]dipyrrol-2-yl]-methanone] | 13

The remaining molecules from weak to strong by IC50, led by results:

Row | IC50 [nM] | Compound
12 | 11 | O=C(c1ccc(-c2ccc(Cl)cc2)nc1)N1C[C@@H]2[C@H](C1)[C@H]1CN(C(=O)c3ccc4[nH]nnc4c3)C[C@@H]21 [Example 1.045, [(3aS,3bS,6aR,6bR)-5-(1H-benzotriazole-5-carbonyl)-octahydro-cyclobuta[1,2-c;3,4-c′]dipyrrol-2-yl]-[6-(4-chloro-phenyl)-pyridin-3-yl]-methanone]
13 | 11 | O=C(CCc1ccc(OC(F)(F)F)cc1)N1C[C@@H]2[C@H](C1)[C@H]1CN(C(=O)c3ccc4[nH]nnc4c3)C[C@@H]21 [Example 1.001, 1-[(3aS,3bR,6aS,6bR)-5-(1H-benzotriazole-5-carbonyl)-octahydro-cyclobuta[1,2-c;3,4-c′]dipyrrol-2-yl]-3-(4-trifluoromethoxy-phenyl)-propan-1-one]
14 | 9 | CC(C)Oc1cc(C(=O)N2C[C@@H]3[C@H]4CN(C(=O)c5ccc(S(N)(=O)=O)cc5)C[C@H]4[C@@H]3C2)cc2ccccc12 [Example 1.062, 4-[(3aS,3bS,6aR,6bR)-5-(4-isopropoxy-naphthalene-2-carbonyl)-octahydro-cyclobuta[1,2-c;3,4-c′]dipyrrole-2-carbonyl]benzenesulfonamide]
15 | 8 | COCCOc1cc(C(=O)N2C[C@@H]3[C@H]4CN(C(=O)c5ccc6[nH]nnc6c5)C[C@H]4[C@@H]3C2)nc2ccccc12 [Example 1.069, [(3aR,3bS,6aR,6bS)-5-(1H-benzotriazole-5-carbonyl)-octahydro-cyclobuta[1,2-c;3,4-c′]dipyrrol-2-yl]-[4-(2-methoxy-ethoxy)-quinolin-2-yl]-methanone]
16 | 7.5 | CCOc1c(C(=O)N2C[C@@H]3[C@H]4CN(C(=O)c5ccc6[nH]nnc6c5)C[C@H]4[C@@H]3C2)ccc2c1ccn2CC [Example 1.081, [(3aS,3bS,6aR,6bR)-5-(1H-benzotriazole-5-carbonyl)-octahydro-cyclobuta[1,2-c;3,4-c′]dipyrrol-2-yl]-(4-ethoxy-1-ethyl-1H-indol-5-yl)-methanone]
17 | 1.3 | CC(C)Oc1cc(C(=O)N2C[C@@H]3[C@H](C2)[C@H]2CN(C(=O)[C@@H]4CCc5[nH]nnc5C4)C[C@@H]32)cc2ccccc12 [Example 1.059, (4-isopropoxy-naphthalen-2-yl)-[(3aR,3bS,6aR,6bS)-5-((R)-4,5,6,7-tetrahydro-1H-benzotriazole-5-carbonyl)-octahydro-cyclobuta[1,2-c;3,4-c′]dipyrrol-2-yl]-methanone]

Reference: patent publication US10849881B2, “Octahydro-cyclobuta[1,2-c;3,4-c′]dipyrrol-2-yl” (Hoffmann-La Roche Inc., priority 2013, dated 2020)
